# Several values for one entry are separate records, joined by “and”; a condition that tells them apart may be missing. Identical values can stand only once.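 These data come from cells grown in 96-well plates and exposed to compound for 48 hours at five concentrations. GI50 marks 50% less growth. The concentration for full growth arrest is given as TGI.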
# Columns and labels:
# Assay in all cases: DTP human tumour cell line panel, 48 h
# HCT-15 colon = tested on: HCT-15 colon
# OVCAR-3 ovarian = tested on: OVCAR-3 ovarian
# SF-268 CNS = tested on: SF-268 CNS
# UACC-62 melanoma = tested on: UACC-62 melanoma
# NCI-H23 lung = tested on: NCI-H23 lung
# SK-MEL-5 melanoma = tested on: SK-MEL-5 melanoma
# EKVX NSCLC = tested on: EKVX NSCLC
# IGROV1 ovarian = tested on: IGROV1 ovarian
# U251 CNS = tested on: U251 CNS
# HCT-116 colon = tested on: HCT-116 colon
SMILES,GI50 (HCT-15 colon),TGI (HCT-15 colon),GI50 (OVCAR-3 ovarian),TGI (OVCAR-3 ovarian),GI50 (SF-268 CNS),TGI (SF-268 CNS),GI50 (UACC-62 melanoma),TGI (UACC-62 melanoma),GI50 (NCI-H23 lung),TGI (NCI-H23 lung),GI50 (SK-MEL-5 melanoma),TGI (SK-MEL-5 melanoma),GI50 (EKVX NSCLC),TGI (EKVX NSCLC),GI50 (IGROV1 ovarian),TGI (IGROV1 ovarian),GI50 (U251 CNS),TGI (U251 CNS),GI50 (HCT-116 colon),TGI (HCT-116 colon)
COc1cc2c(cc1OC)-c1c(c3ccc([N+](=O)[O-])cc3c(=O)n1CCCN=[N+]=[N-])C2=O,> 100 µM,> 100 µM,> 100 µM,> 100 µM,41.7 µM,> 100 µM,51.9 µM,> 100 µM,40.5 µM,> 100 µM,42.6 µM,> 100 µM,> 100 µM,> 100 µM,7.5 µM,> 100 µM,11.6 µM,> 100 µM,31.5 µM,> 100 µM
CCN(CC)CCCNc1nccc2c(C)c3[nH]c4ccncc4c(=O)c3cc12,,> 100 µM,,8.88 µM,,4.46 µM,,3.72 µM,,7.34 µM,,14.1 µM,,35.7 µM,,21.7 µM,,11.8 µM,,2.03 µM
CC[C@H](C)C(=O)O[C@H]1CCC=C2C=C[C@H](C)[C@H](CC[C@@H]3C[C@@H](O)CC(=O)O3)[C@H]21,2.52 µM,> 100 µM,,> 100 µM,2.14 µM,> 100 µM,2.51 µM,> 24.4 µM,8.37 µM,> 100 µM,3.39 µM,13.6 µM,7.93 µM,> 100 µM,5 µM,> 100 µM,1.13 µM,> 100 µM,2.84 µM,> 59 µM
CCCCNP1(NCCCC)=NP(NCCCC)(NCCCC)=NP(NCCCC)(NCCCC)=NP(NCCCC)(NCCCC)=N1,21.2 µM,99.5 µM,0.243 µM,0.871 µM,1.53 µM,21.2 µM,0.567 µM,5.91 µM,0.271 µM,3.2 µM,0.541 µM,1.89 µM,0.25 µM,6.17 µM,0.584 µM,11.6 µM,0.296 µM,3.81 µM,0.209 µM,0.81 µM
O=C(Nc1cccc(-n2ccc3c(NC(=O)c4ccccc4)nccc32)c1)c1ccc(Cl)c(Cl)c1,0.0879 µM,1.31 µM,0.0413 µM,0.162 µM,0.19 µM,2.18 µM,0.0535 µM,1.63 µM,0.342 µM,2.47 µM,0.0719 µM,0.347 µM,0.704 µM,3.34 µM,0.25 µM,1.9 µM,0.0875 µM,1.6 µM,0.0989 µM,1.22 µM
COC(=O)c1cc2c([nH]c3ccccc32)c(-c2nc3ccccc3cc2CO)n1,> 100 µM,> 100 µM,> 100 µM,> 100 µM,> 100 µM,> 100 µM,> 100 µM,> 100 µM,> 100 µM,> 100 µM,50.3 µM,> 100 µM,> 100 µM,> 100 µM,> 100 µM,> 100 µM,7.1 µM,> 100 µM,7.93 µM,> 100 µM
Nc1nc(N)c(CCCCc2ccccc2)c(/C=C/c2ccc([N+](=O)[O-])cc2)n1,,7.09 µM,,8.4 µM,,48.2 µM,,7.46 µM,,33.4 µM,,16.3 µM,,> 100 µM,,20.2 µM,,11.4 µM,,6.52 µM
CCC1=CCC(P(=O)(c2ccccc2)c2ccccc2)CC1C (configuration not stated),,> 100 µM,,> 100 µM,,> 100 µM,,> 100 µM,,> 100 µM,,70.8 µM,,> 100 µM,,> 100 µM,,> 100 µM,,63.8 µM
C[C@H]1[C@H](C)CC[C@]2(C(=O)O)CCC3(COC(=O)/C=C/c4ccc(O)cc4)C(=CCC4[C@@]5(C)CC[C@H](O)C(C)(C)C5CC[C@]43C)[C@H]12 (some centres not stated),,15.7 µM,,24.5 µM,,22.5 µM,,23 µM,,,,24.4 µM,,24.6 µM,,15.4 µM,,9.92 µM,,14.2 µM
CCCCCC1CC=CC(NC(=O)OCc2ccccc2)C1/C=C/CCCC1OCCO1 (configuration not stated),,> 100 µM,,> 100 µM,,> 100 µM,,> 100 µM,,> 100 µM,,> 100 µM,,> 100 µM,,> 100 µM,,> 100 µM,,> 100 µM
CCCCCCCCCCCCCC(=O)NO,,26.2 µM,,28 µM,,26.9 µM,,11.5 µM,,31.1 µM,,26.5 µM,,54.1 µM,,38.3 µM,,33.8 µM,,> 94.9 µM
COc1ccccc1/C=C1\CCC(CN2CCOCC2)C1=O (configuration not stated),,12.3 µM,,15.2 µM,,41.7 µM,,30.3 µM,,43.5 µM,,28.7 µM,,30.6 µM,,29.3 µM,,34.2 µM,,22.9 µM
CCc1c2c(nc3ccc(OC(=O)OCc4ccc(B5OC(C)(C)C(C)(C)O5)cc4)cc13)-c1cc3c(c(=O)n1C2)COC(=O)[C@]3(O)CC,0.127 µM,> 100 µM,0.0716 µM,1.46 µM,< 0.01 µM,1.69 µM,< 0.01 µM,0.104 µM,< 0.0107 µM,0.437 µM,0.0217 µM,0.118 µM,0.345 µM,> 55.2 µM,0.1 µM,3.48 µM,< 0.01 µM,> 34.3 µM,< 0.0111 µM,> 100 µM
COc1cc(C(=O)c2cnc(-c3ccc4cc[nH]c4c3)[nH]2)cc(OC)c1OC,0.0381 µM,4.96 µM,0.0195 µM,0.0477 µM,0.0808 µM,7.19 µM,0.0244 µM,13.8 µM,0.0575 µM,21 µM,0.0385 µM,0.389 µM,0.0721 µM,19.7 µM,0.0997 µM,16.7 µM,0.0393 µM,11 µM,0.0332 µM,2.23 µM
CN1CCN(C(=O)[C@@]2(C)CC[C@]3(C)CC[C@]4(C)C(=CC[C@@H]5[C@@]6(C)CC[C@H](OC(=O)c7cccnc7)C(C)(C)[C@@H]6CC[C@]54C)[C@@H]3C2)CC1,1.4 µM,2.8 µM,1.74 µM,3.29 µM,1.84 µM,3.85 µM,1.84 µM,3.46 µM,1.62 µM,3.39 µM,1.65 µM,3.02 µM,1.74 µM,3.86 µM,1.93 µM,3.89 µM,1.57 µM,2.95 µM,1.48 µM,2.87 µM
COc1ccc(C2CC(c3ccc4ccccc4c3)=NN2c2nc(O)c(C3=c4cc(Cl)ccc4=NC3=O)s2)cc1 (configuration not stated),0.0342 µM,0.229 µM,0.0202 µM and < 0.005 µM,0.0396 µM and < 0.005 µM,0.0291 µM and < 0.005 µM,,0.0296 µM and < 0.005 µM,,0.0226 µM and < 0.005 µM,,0.0175 µM and < 0.005 µM,0.0337 µM and < 0.005 µM,0.0313 µM and < 0.005 µM,,0.0254 µM,0.0736 µM,0.0199 µM and < 0.005 µM,0.0414 µM and < 0.005 µM,0.0338 µM and < 0.005 µM,0.122 µM and 0.107 µM
CCOC1Oc2ccccc2C(=O)/C1=C\Nc1ccc(C(=O)O)c(O)c1 (configuration not stated),16.4 µM,45.9 µM,25.2 µM,56.3 µM,26.1 µM,80.8 µM,19.6 µM,43.5 µM,21.4 µM,63.1 µM,18.6 µM,37.4 µM,36.7 µM,96.1 µM,43.9 µM,> 100 µM,19.1 µM,46.5 µM,15.7 µM,35.1 µM
CN(C)c1ccc(/C=N/n2c(CCCCc3n[nH]c(=S)n3/N=C/c3ccc(N(C)C)cc3)n[nH]c2=S)cc1,> 100 µM,> 100 µM,> 100 µM,> 100 µM,> 100 µM,> 100 µM,> 100 µM,> 100 µM,> 100 µM,> 100 µM,> 100 µM,> 100 µM,> 100 µM,> 100 µM,> 100 µM,> 100 µM,74 µM,> 100 µM,> 100 µM,> 100 µM
Cc1ccc2c(c1)C(=O)/C(=C/c1cccc(OCC(=O)c3ccc(Cl)cc3)c1)CS2,2.74 µM,15.3 µM,5.58 µM,18 µM,10.4 µM,33.3 µM,9.14 µM,25.8 µM,3.03 µM,23.4 µM,6.95 µM,19.6 µM,8.65 µM,40.8 µM,5.65 µM,20.4 µM,3.14 µM,13.6 µM,1.89 µM,3.85 µM
NS(=O)(=O)c1ccc(-n2nc(-c3ccccc3)cc2-c2cc(O)ccc2O)cc1,> 100 µM,> 100 µM,> 100 µM,> 100 µM,> 100 µM,> 100 µM,44.9 µM,> 100 µM,77.1 µM,> 100 µM,> 100 µM,> 100 µM,> 100 µM,> 100 µM,> 100 µM,> 100 µM,46.4 µM,> 100 µM,40.8 µM,> 100 µM
CC1(C)C=C(N2CCN(C3=CC(C)(C)NC(C)(C)C3)CC2)CC(C)(C)N1,,> 100 µM,,> 100 µM,,> 100 µM,,> 100 µM,,> 100 µM,,> 100 µM,,> 100 µM,,> 100 µM,,> 100 µM,,> 100 µM
CC[C@H](C)[C@H](NC(=O)[C@H]1CCCCN1C)C(=O)N(C)[C@H](C[C@@H](OC(C)=O)c1nc(C(=O)NC23C4C5C2C2C3C4C52C(=O)OC)cs1)C(C)C (some centres not stated),0.00763 µM and 0.00302 µM,> 25 µM,0.000489 µM and < 0.0025 µM,,0.00279 µM and 0.0025 µM,> 25 µM,0.0011 µM and 0.0025 µM,20.1 µM,0.00414 µM and 0.0025 µM,> 25 µM,0.000838 µM and 0.0025 µM,0.0241 µM and 0.0102 µM,0.027 µM and 0.011 µM,> 25 µM,0.00242 µM and 0.0025 µM,20.1 µM,0.00424 µM and 0.0025 µM,> 25 µM,0.00355 µM and 0.0025 µM,0.088 µM
CC(/C=C1\CCC(CN(C)C)C1=O)c1cccc(Br)c1 (configuration not stated),,34 µM,,30.8 µM,,43.7 µM,,32.4 µM,,38 µM,,18.8 µM,,42 µM,,19.4 µM,,32.4 µM,,31 µM
CN(CCCCCCCCNc1ccnc2ccccc12)Cc1ccc(-c2ccc(-c3ccc(C#N)cc3)s2)cc1,0.266 µM,1.37 µM,0.647 µM,2.07 µM,1.6 µM,3.45 µM,1.53 µM,2.92 µM,0.84 µM,2.42 µM,0.89 µM,2.17 µM,0.827 µM,2.28 µM,1.4 µM,3.02 µM,0.248 µM,0.842 µM,0.184 µM,0.537 µM
O=C(CC1(O)C(=O)Nc2c(Cl)cc(Cl)cc21)c1ccc([N+](=O)[O-])cc1 (configuration not stated),,> 100 µM,,> 64.1 µM,,> 100 µM,,> 53.6 µM,,> 78.9 µM,,> 57.3 µM,,> 61.9 µM,,> 90.6 µM,,> 100 µM,,> 59.2 µM
O=C(CS(=O)c1nc2ccccc2nc1-c1ccccc1)Nc1ccc(Cl)cc1 (configuration not stated),21.2 µM,59.4 µM,21.5 µM,51.2 µM,24.9 µM,88.2 µM,16 µM,40.7 µM,30.7 µM,> 100 µM,15.2 µM,30.8 µM,29.5 µM,> 100 µM,31.2 µM,99.5 µM,21.8 µM,61.6 µM,16 µM,33.1 µM
COc1ccc2[nH]cc(Cc3c[nH]c4ccc(OC)cc34)c2c1,14.1 µM,27.2 µM,13.3 µM,31.3 µM,22.7 µM,62.5 µM,16 µM,29.5 µM,21.7 µM,40.7 µM,16.5 µM,30.1 µM,17.9 µM,45.9 µM,15.4 µM,33.1 µM,15.9 µM,29.4 µM,15.8 µM,29.2 µM
COc1ccc(C(=O)Nc2ccn(CCOC(=O)c3ccc(OC)cc3)c(=O)n2)cc1,,> 100 µM,,> 100 µM,,> 100 µM,,> 100 µM,,,,> 100 µM,,> 100 µM,,> 100 µM,,> 100 µM,,> 100 µM
